Test system: healthy participants
Experiment: Phase 1 Part B multiple ascending dose (MAD): blood pressure
Format: in vivo, human
Details: for Mean SBP: in mmHg (unit assumed)
Method: The study was performed in 3 parts in 112 healthy male and female participants, including 24 Japanese participants. Female participants were to be not of childbearing potential. The present study was designed to evaluate the safety and tolerability, PK, and exploratory PD of an oral suspension of Compound A. Parts A and B (Cohort B1 only) enrolled healthy participants and was conducted at a site in The Netherlands and Part B (Cohort B2 to B5) enrolled healthy non-Japanese participants and was conducted at a site in the United Kingdom (UK). Part C enrolled healthy Japanese participants and was conducted at the same site in the UK.
Part B was a MAD study in a planned number of 6 sequential dose escalation cohorts (10 mg QD, 30 mg QD, 30 mg BID, 60 mg BID, 125 mg BID, and ≤250 mg BID) of 8 healthy participants (6 active+2 placebo) each, under fasted conditions. However, Cohort B6 (≤250 mg BID) was cancelled because sufficient safety and PK data had been obtained at doses up to 125 mg BID. Eligible participants received study drug (Compound A or placebo) administered orally for 14 days.
Physical examinations, vital sign measurements (including orthostasis testing in Cohort A6, Cohort B3 to B5, and C1 to C3 at selected time points), 12-lead electrocardiogram (ECG), and clinical laboratory evaluations were performed at selected times throughout the study. In addition, Holter monitoring was performed for the first 24 hours post dose on Day 1 in Part A (not in FE/pH cohort), and also for the first 24 hours post dose on Day 1 and Day 14 in Parts B and C. Participants were closely monitored for adverse events (AEs). Blood samples were collected for up to 14 days (follow-up visit) after (last) study drug administration for PK analysis. In addition, blood and urine were collected for exploratory biomarker assessments and for biobanking of samples for potential analyses. Urine was collected for potential PK analysis for up to 96 hours after a single dose of Compound A or placebo was administered in the SAD part, and for up to 24 hours after the first (morning) dose of study drug on Day 1 and for up to 24 hours after the last (morning) dose of study drug on Day 14 in the MAD parts.

CCCN(C)C(=O)OCc1c(-c2ccc(O[C@H]3CCC[C@H](C(=O)O)C3)c(C)n2)nnn1C [Compound A, (1S,3S)-3-((2-methyl-6-(1-methyl-5-(((methyl(propyl)carbamoyl)-oxy)methyl)-1H-1,2,3-triazol-4-yl)pyridin-3-yl)oxy)cyclohexane-1-carboxylic acid]
Maximum of mean (±SD) reduction in DBP from baseline (MAD 10 mg QD (B1)): 6.8 ± 2.64 mmHg
Time of maximum mean DBP reduction (MAD 10 mg QD (B1)): 1-5 Day-h
Mean DBP (MAD 10 mg QD, D 1 2 h): 70.2 mmHg
Mean SBP (MAD 10 mg QD, D 1 2 h): 112.2
Mean DBP (MAD 10 mg QD, D 1 4 h): 65.8 mmHg
Mean SBP (MAD 10 mg QD, D 1 4 h): 109.5
Mean DBP (MAD 10 mg QD, D 1 8 h): 68.7 mmHg
Mean SBP (MAD 10 mg QD, D 1 8 h): 112.8
Mean DBP (MAD 10 mg QD, D 2 24 h): 65.3 mmHg
Mean SBP (MAD 10 mg QD, D 2 24 h): 108.5
Mean DBP (MAD 10 mg QD, D 14 312 h): 69.3 mmHg
Mean SBP (MAD 10 mg QD, D 14 312 h): 112.8
Mean DBP (MAD 10 mg QD, D 14 314 h): 67.5 mmHg
Mean SBP (MAD 10 mg QD, D 14 314 h): 113.5
Mean DBP (MAD 10 mg QD, D 14 317 h): 64.3 mmHg
Mean SBP (MAD 10 mg QD, D 14 317 h): 114.5
Mean DBP (MAD 10 mg QD, D 14 320 h): 67.5 mmHg
Mean SBP (MAD 10 mg QD, D 14 320 h): 111.2
Mean DBP (MAD 10 mg QD, D 15 336 h): 66.8 mmHg
Mean SBP (MAD 10 mg QD, D 15 336 h): 110.8
Maximum of mean (±SD) reduction in DBP from baseline (MAD 30 mg BID (B3)): 11.2 ± 4.58 mmHg
Maximum of mean (±SD) reduction in SBP from baseline (MAD 30 mg BID (B3)): 15.8 ± 10.19 mmHg
Time of maximum mean DBP reduction (MAD 30 mg BID (B3)): 1-5 Day-h
Time of maximum mean SBP reduction (MAD 30 mg BID (B3)): 1-5 Day-h
Mean DBP (MAD 30 mg BID, D 1 2 h): 63.3 mmHg
Mean SBP (MAD 30 mg BID, D 1 2 h): 106.5
Mean DBP (MAD 30 mg BID, D 1 4 h): 62.7 mmHg
Mean SBP (MAD 30 mg BID, D 1 4 h): 107.2
Mean DBP (MAD 30 mg BID, D 1 8 h): 63.2 mmHg
Mean SBP (MAD 30 mg BID, D 1 8 h): 106.3
Mean DBP (MAD 30 mg BID, D 2 24 h): 66.7 mmHg
Mean SBP (MAD 30 mg BID, D 2 24 h): 114.7
Mean DBP (MAD 30 mg BID, D 14 312 h): 68.7 mmHg
Mean SBP (MAD 30 mg BID, D 14 312 h): 119.7
Mean DBP (MAD 30 mg BID, D 14 314 h): 63.8 mmHg
Mean SBP (MAD 30 mg BID, D 14 314 h): 109.7
Mean DBP (MAD 30 mg BID, D 14 317 h): 61 mmHg
Mean SBP (MAD 30 mg BID, D 14 317 h): 114.3
Mean SBP (MAD 30 mg BID, D 14 320 h): 110.0
Mean DBP (MAD 30 mg BID, D 15 336 h): 65.3 mmHg
Mean SBP (MAD 30 mg BID, D 15 336 h): 116.3
Maximum of mean (±SD) reduction in DBP from baseline (MAD 30 mg QD (B2)): 8.8 ± 4.62 mmHg
Maximum of mean (±SD) reduction in SBP from baseline (MAD 30 mg QD (B2)): 10.7 ± 7.06 mmHg
Mean DBP (MAD 30 mg QD, D 1 2 h): 66.5 mmHg
Mean SBP (MAD 30 mg QD, D 1 2 h): 104.8
Mean DBP (MAD 30 mg QD, D 1 4 h): 67.8 mmHg
Mean SBP (MAD 30 mg QD, D 1 4 h): 102.3
Mean DBP (MAD 30 mg QD, D 1 8 h): 66 mmHg
Mean SBP (MAD 30 mg QD, D 1 8 h): 107.2
Mean DBP (MAD 30 mg QD, D 2 24 h): 67.3 mmHg
Mean SBP (MAD 30 mg QD, D 2 24 h): 114.3
Mean DBP (MAD 30 mg QD, D 14 312 h): 63.3 mmHg
Mean SBP (MAD 30 mg QD, D 14 312 h): 110.0
Mean DBP (MAD 30 mg QD, D 14 314 h): 63.5 mmHg
Mean SBP (MAD 30 mg QD, D 14 314 h): 101.7
Mean DBP (MAD 30 mg QD, D 14 317 h): 61.8 mmHg
Mean SBP (MAD 30 mg QD, D 14 317 h): 102.3
Mean DBP (MAD 30 mg QD, D 14 320 h): 63.2 mmHg
Mean SBP (MAD 30 mg QD, D 14 320 h): 101.5
Mean DBP (MAD 30 mg QD, D 15 336 h): 62.3 mmHg
Mean SBP (MAD 30 mg QD, D 15 336 h): 107.3
Maximum of mean (±SD) reduction in DBP from baseline (MAD 60 mg BID (B4)): 8.3 ± 6.89 mmHg
Maximum of mean (±SD) reduction in SBP from baseline (MAD 60 mg BID (B4)): 17.5 ± 11.31 mmHg
Time of maximum mean DBP reduction (MAD 60 mg BID (B4)): 3-4 Day-h
Mean DBP (MAD 60 mg BID, D 1 2 h): 64.5 mmHg
Mean SBP (MAD 60 mg BID, D 1 2 h): 110.2
Mean DBP (MAD 60 mg BID, D 1 4 h): 66 mmHg
Mean SBP (MAD 60 mg BID, D 1 4 h): 106.7
Mean DBP (MAD 60 mg BID, D 1 8 h): 64.7 mmHg
Mean SBP (MAD 60 mg BID, D 1 8 h): 109.3
Mean DBP (MAD 60 mg BID, D 2 24 h): 65.7 mmHg
Mean SBP (MAD 60 mg BID, D 2 24 h): 118.8
Mean DBP (MAD 60 mg BID, D 14 312 h): 64.8 mmHg
Mean SBP (MAD 60 mg BID, D 14 312 h): 111.8
Mean DBP (MAD 60 mg BID, D 14 314 h): 64 mmHg
Mean SBP (MAD 60 mg BID, D 14 314 h): 110.5
Mean DBP (MAD 60 mg BID, D 14 317 h): 62.5 mmHg
Mean SBP (MAD 60 mg BID, D 14 317 h): 114.8
Mean DBP (MAD 60 mg BID, D 14 320 h): 63 mmHg
Mean SBP (MAD 60 mg BID, D 14 320 h): 115.5
Mean DBP (MAD 60 mg BID, D 15 336 h): 64.5 mmHg
Mean SBP (MAD 60 mg BID, D 15 336 h): 114.5
Maximum of mean (±SD) reduction in DBP from baseline (MAD 125 mg BID (B5)): 14.7 ± 5.68 mmHg
Maximum of mean (±SD) reduction in SBP from baseline (MAD 125 mg BID (B5)): 14.5 ± 5.86 mmHg
Time of maximum mean DBP reduction (MAD 125 mg BID (B5)): 12-12 Day-h
Mean DBP (MAD 125 mg BID, D 1 2 h): 62.3 mmHg
Mean SBP (MAD 125 mg BID, D 1 2 h): 112.2
Mean DBP (MAD 125 mg BID, D 1 4 h): 64.7 mmHg
Mean SBP (MAD 125 mg BID, D 1 4 h): 112.2
Mean DBP (MAD 125 mg BID, D 1 8 h): 64.7 mmHg
Mean SBP (MAD 125 mg BID, D 1 8 h): 107.3
Mean DBP (MAD 125 mg BID, D 2 24 h): 66.3 mmHg
Mean SBP (MAD 125 mg BID, D 2 24 h): 118.8
Mean DBP (MAD 125 mg BID, D 14 312 h): 62 mmHg
Mean SBP (MAD 125 mg BID, D 14 312 h): 111.3
Mean DBP (MAD 125 mg BID, D 14 314 h): 65 mmHg
Mean SBP (MAD 125 mg BID, D 14 314 h): 116.0
Mean DBP (MAD 125 mg BID, D 14 317 h): 59.2 mmHg
Mean SBP (MAD 125 mg BID, D 14 317 h): 116.3
Mean DBP (MAD 125 mg BID, D 14 320 h): 61.8 mmHg
Mean SBP (MAD 125 mg BID, D 14 320 h): 114.5
Mean DBP (MAD 125 mg BID, D 15 336 h): 63 mmHg
Mean SBP (MAD 125 mg BID, D 15 336 h): 111.3
BP reductions versus placebo (MAD BID groups): no clear differences between placebo and the Compound A groups
Dose dependence of mean SBP and DBP reductions (MAD QD groups): reductions generally occurred in a Compound A dose-dependent manner

— patent US20240216352A1 (priority 2022, published 2024)
